Measured values: US20100162416A1, “Multi-stage stem cell carcinogenesis” (StemLifeLine, Inc., priority 2008, published 2010)
“Also recorded” adds a separate entry of the source.

How the values were obtained:
Assay type in all cases: cell-based, human
[1] = system: clones 05, 07, 11, isogenic hESC control and isogenic cancer lines TMEC02, TMEC03; assay: Salinomycin dose response measured by BrdU incorporation; conditions: clones 05 and 07 compared with clone 11, isogenic hESC control
[2] = system: isogenic cloned cell lines derived from one hESC line; assay: Resistance of the panel of isogenic cloned cell lines to common chemotherapeutic agents; conditions: panel of isogenic cloned cell lines with CSC phenotype
Excerpt: Using one hESC line, a panel of isogenic cloned cell lines has already been generated and banked. […] High resolution karyotype (G-banding), proliferation rate (BrdU incorporation and doubling time), growth factor dependence and expression of CSC/SC markers such as Oct-4, Nanog, CD133, ABCG2, ABCG5 etc) have been examined and the stability of the expressed phenotypes was confirmed.

clones 07-B1 and 11-B19 = assay: Drug resistance of BCNU-selected high-resistance clones; conditions: clones selected by increasing concentrations of BCNU; data not shown
Protocol: Two clones, 07 and 11 were exposed to increasing concentrations of BCNU. The surviving cells were cloned and a number of high-resistance clones two of which, 07-B1 and 11-B19 were isolated. Their drug resistance to BCNU and MTIC was tested.

[3] = system: selected clones (05, 07, 11) and parental hESC; assay: Drug resistance profile: proliferation rate by BrdU incorporation in the presence of chemotherapeutic reagents
Protocol: Drug resistance profiles of selected clones were determined for the common classes of chemotherapeutic reagents. Proliferation rate of the clones and parental hESC was measured in the presence of multiple concentrations of 10 different drugs using BrdU incorporation assay. Each drug has been tested in at least three independent experiments, each condition being done in triplicate. The approximate half maximal inhibitory concentration (IC50) was determined for each of the drugs tested. IC50 represents the concentration of a drug that is required for 50% inhibition in vitro.
Response of the selected clones to the following chemotherapeutic reagents was examined. The chemotherapeutic agents were chosen for their wide-spread use and variety with respect to their modes of action: 5-fluorouracil (5-FU), doxorubicin (Doxo), irinotecan (SN-38), taxol, etoposide (VP-16), carmustine (BCNU), methotrexate (MTX), cytarabine (AraC), temozolomide (MTIC) and chlorambucil (CLB). […] Proliferation rate was measured by BrdU incorporation at the end of the drug treatment. All samples were made in triplicates in each of the three independent experiments performed.

In the case of `CC[C@@H](C(=O)[C@@H](C)[C@@H](O)[C@H](C)[C@@H]1O[C@@H]([C@@H](CC)C(=O)O)CC[C@@H]1C)[C@H]1O[C@]2(C=C[C@@H](O)[C@]3(CC[C@@](C)([C@H]4CC[C@](O)(CC)[C@H](C)O4)O3)O2)[C@H](C)C[C@@H]1C` [salinomycin], the “effect of drug on proliferation of clones 05 and 07” value [1] is reported as “most significantly affected; also recorded: significantly more affected”.

In the case of `COc1cccc2c1C(=O)c1c(O)c3c(c(O)c1C2=O)C[C@@](O)(C(=O)CO)C[C@@H]3O[C@H]1C[C@H](N)[C@H](O)[C@H](C)O1` [doxorubicin], the “resistance of transformed cell lines to the agent” value (“resistance … to the agent” below) [2] is reported as “increased resistance”.

With `O=NN(CCCl)C(=O)NCCCl` [BCNU, carmustine] the “resistance … to the agent” value [2] was “increased resistance” and the “resistance of clones 07-B1 and 11-B19 relative to parental clones” value (clones 07-B1 and 11-B19) was “higher resistance than the parental clones”.

`O=c1[nH]cc(F)c(=O)[nH]1` [5-FU, 5-fluorouracil] was tested, and the “resistance of clone 07” value ([3]; clone 07 compared with clone MEC-11) was “more resistant”.

With `CO[C@@]12[C@H](COC(N)=O)C3=C(C(=O)C(C)=C(N)C3=O)N1C[C@@H]1N[C@@H]12` [mitomycin C] the “effect on proliferation (positive control)” value ([3]; all cell lines, BrdU incorporation at end of drug treatment) was “induced growth arrest in all cell lines”.

`CC(=O)O[C@H]1C(=O)[C@@]2(C)[C@H]([C@H](OC(=O)c3ccccc3)[C@]3(O)C[C@H](OC(=O)[C@H](O)[C@@H](NC(=O)c4ccccc4)c4ccccc4)C(C)=C1C3(C)C)[C@]1(OC(C)=O)CO[C@@H]1C[C@@H]2O` [paclitaxel] was tested, and the “resistance … to the agent” value [2] was “increased resistance”.
